Data reported in article PMC4492750, “The discovery of a selective and potent A2a agonist with extended lung retention” (Pharmacology Research & Perspectives, 2015).

Assays:
[1] = system: LPS-induced TNFα production in rat splenocytes; assay: LPS-induced TNFα production in rat mononuclear spleen cells (rTNFα splenocytes); format: cell-based; conditions: Splenocyte
Procedure: • Human A2a and A2b receptor pharmacology: Chinese hamster ovary CHO-K1 cells stably expressing human A2a and A2b receptors were used to determine substances agonistic potency and intrinsic activity. […] The signal corresponding to adenosine at 100 μmol/L was used to define 100% intrinsic activity. • Human A3 receptor pharmacology: A3 receptor Gi coupling was measured by GTPγ ^35[S] filter assay at serial dilutions of compound using membranes from Perkin-Elmer. The signal corresponding to the maximal response of NECA at 100 μmol/L was set to 100% intrinsic activity. • Lipopolysaccharide (LPS)-induced TNFα production in primary human peripheral blood mononuclear cells (hTNFα PBMC) and rat mononuclears (rTNFα splenocytes): Human PBMC and rat mononuclear spleen cells were incubated with serial dilutions of compound and stimulated with LPS.
Procedures and assays were run in R10 buffer (RPMI 1640 Medium supplemented with GlutaMAX™ and HEPES (GIBCO-BRL), 10% fetal calf serum, penicillin and streptomycin (each 5000IU/ml)). Human PBMC were purified from heparinised blood by Ficoll separation (Ficoll, Amersham Pharmacia Biotech AB, Cat: 17-1440-03, Lot: 312170) and rat mononuclear cells were collected after rat spleen perfusion. Both cell preparations were followed by hypotonic lysis of residual erythrocytes. Serial dilutions of compounds were pre-incubated with 200 000 cells/well (96-well plate) for 45min in 37 °C (190µl). Cells were stimulated by 10µl LPS (final concentration 0.5ng/ml human and 150ng/ml rat; SIGMA Cat: L-4516, Lot: 104K4036) for 18h at 37 °C. TNFα release was measured by ELISA (^TmR&D Systems plates) according to the manufacturer’s instructions in cell free supernatant.

[2] = biological target: T1, A3 (Homo sapiens, UniProt P0DMS8); assay: Selectivity panel of 98 targets in binding assays (Ricerca): A3; design: Ricerca (contract panel); conditions: 10 μmol/L of compound; data on AstraZeneca file
T1 sequence (P0DMS8 1-318): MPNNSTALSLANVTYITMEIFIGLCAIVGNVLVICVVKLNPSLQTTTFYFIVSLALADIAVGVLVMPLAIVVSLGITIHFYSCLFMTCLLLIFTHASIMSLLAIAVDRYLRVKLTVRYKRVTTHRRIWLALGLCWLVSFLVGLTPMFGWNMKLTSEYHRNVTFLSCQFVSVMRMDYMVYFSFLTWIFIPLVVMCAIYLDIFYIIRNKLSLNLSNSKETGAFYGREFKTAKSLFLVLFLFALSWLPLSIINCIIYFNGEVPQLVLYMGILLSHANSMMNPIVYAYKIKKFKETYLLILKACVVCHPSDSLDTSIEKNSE
Procedure: The medicinal chemistry synthetic optimization focused on the position C2 and N6 (Fig.2) with the aim to discover a compound with high A2a potency, high selectivity, low lipophilicity (logD), and high solubility. […] Selectivity of compound 2 was tested across 98 targets in binding assays (www.ricerca.com). The only identified significant hits (i.e., >50% effect at 10 μmol/L of compound 2) were A2a (∼100%) and A3 (∼84%) data on AstraZeneca file.

EC50 ([1]; Rattus norvegicus, read-out: EC50, inhibition of LPS stimulated TNFα release in rat splenocytes): 0.6 nM
IC50 ([1]; LPS-stimulated TNFα release, rat splenocytes, average (SD)): 0.6 nM
Effect in binding assay, A3 [2]: ~84%
SMILES: CCNC(=O)[C@H]1O[C@@H](n2cnc3c(NC(CC)CC)nc(NCCNC(=O)Nc4cc[n+](C)cc4)nc32)[C@H](O)[C@@H]1O [Compound 2, (2S,3S,4R,5R)-N-ethyl-5-[6-(1-ethylpropylamino)-2-[2-[(1-methylpyridin-1-ium-4-yl)carbamoylamino]ethylamino]purin-9-yl]-3,4-dihydroxy-tetrahydrofuran-2-carboxamide]
Emax ([1]; LPS-stimulated TNFα release, rat splenocytes, average (SD), read-out: rTNFα splenocytes Intrinsic activity): 57.4%
